63 compounds from patent publication US20230279020A9, “CARM1 INHIBITORS AND USES THEREOF” (Epizyme, Inc., priority 2013, published 2023) can be followed below.

What is called IC50 is the concentration at which inhibition is half-maximal.

The target in this assay is Human CARM1 (PRMT4) (Homo sapiens (Human), UniProt Q86X55). Kind of assay: CARM1 enzyme assay on peptide substrate (3H-SAM Flashplate). The settings on record: Biochemical potencies, classification codes; read-out: Biochem IC50.
Sequence of Human CARM1 (PRMT4) (Q86X55 other isoform, or with tags, fused parts or gaps isoform Q86X55-1): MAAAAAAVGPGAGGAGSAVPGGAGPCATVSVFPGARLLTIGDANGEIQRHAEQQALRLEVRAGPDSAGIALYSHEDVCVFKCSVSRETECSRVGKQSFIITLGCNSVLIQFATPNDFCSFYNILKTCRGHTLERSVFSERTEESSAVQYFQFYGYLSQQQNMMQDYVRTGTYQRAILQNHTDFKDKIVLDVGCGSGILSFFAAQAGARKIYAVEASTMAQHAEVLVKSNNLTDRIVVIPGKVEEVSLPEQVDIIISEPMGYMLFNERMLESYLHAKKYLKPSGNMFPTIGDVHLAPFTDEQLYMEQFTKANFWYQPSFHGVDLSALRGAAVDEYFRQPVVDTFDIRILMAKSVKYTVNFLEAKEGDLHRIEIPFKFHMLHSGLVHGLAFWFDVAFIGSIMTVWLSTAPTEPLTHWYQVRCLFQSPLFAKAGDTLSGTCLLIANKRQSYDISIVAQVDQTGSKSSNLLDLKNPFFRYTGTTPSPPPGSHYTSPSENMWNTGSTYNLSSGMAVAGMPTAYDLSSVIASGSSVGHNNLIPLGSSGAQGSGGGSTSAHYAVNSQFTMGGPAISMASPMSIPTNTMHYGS
As for `CNC[C@H](O)COc1ccc(Cl)c(-c2nc(-c3c(C)noc3C)c(C)c(N3CCC4(CCN(C5CC5)C4)C3)n2)c1` (stereo partly drawn) [Example 138-1a], the IC50 was below 100 nM. Turning to `CNC[C@@H](O)COc1ccc(Cl)c(-c2nc(NC3CC(C)C3)c(C)c(-c3c(C)noc3C)n2)c1` (stereo partly drawn) [Example 230-3], the 50% inhibitory concentration (IC50) was below 100 nM. Take `CNCC(O)COc1cccc(-c2nc(NC3CN(CC(F)F)C3)c(C)c(-c3c(C)noc3C)n2)c1` (stereo not drawn) [Example 237-1a]: the IC50 was below 100 nM.

Take `CNC[C@H](O)COc1ccc(F)c(-c2nc(-c3c(C)noc3C)c(C)c(N3CCC4(CC3)CN(S(C)(=O)=O)C4)n2)c1` [Example 76-3]: the 50% inhibitory concentration (IC50) was below 100 nM. Regarding `CNCC(O)COc1cccc(-c2nc(-c3c(C)noc3C)cc(N3CCN(C(C)=O)[C@@H](C)C3)n2)c1` (stereo partly drawn) [Example 38-1a], the concentration for half-maximal inhibition (IC50) was below 100 nM. For the compound `CNCC(O)COc1cccc(-c2nc(-c3c(C)noc3C)cc(N(CCOC)C3CCOCC3)n2)c1` (stereo not drawn) [Example 98-1a], the IC50 is below 100 nM.

For `CNC[C@@H](O)COc1ccc(F)c(-c2nc(-c3c(C)noc3C)c(C)c(N3CC4(CCN(C(=O)OC(C)C)CC4)C3)n2)c1` [Example 281-3], the half-maximal inhibitory concentration (IC50) was below 100 nM.

Regarding `CNCC(O)COc1cccc(-c2nc(-c3c(C)noc3C)c(C)c(N3CCO[C@H](C)C3)n2)c1` (stereo partly drawn) [Example 211-1a], the 50% inhibitory concentration (IC50) was below 100 nM. Regarding `CNCC(O)COc1cccc(-c2nc(SC)c(C)c(-c3c(C)noc3C)n2)c1` (stereo not drawn) [Example 53-1a], the IC50 was below 100 nM. To `CNCC(O)COc1cccc(-c2nc(N[C@@H]3C[C@H]4CC[C@@H](C3)N4C(=O)OC)c(C)c(-c3c(C)noc3C)n2)c1` (stereo partly drawn) [Example 265-1a] belongs below 100 nM; to `CNCC(O)COc1cc(Cl)cc(-c2nc(N[C@H]3CCOC3)cc(-c3c(C)noc3C)n2)c1` (stereo partly drawn) [Example 12-1a], below 100 nM. For `CNC[C@@H](O)COc1ccc(Cl)c(-c2nc(N[C@@H]3CCN(C)C[C@@H]3F)c(Cl)c(-c3c(C)noc3C)n2)c1` [Example 210-3] the value was below 100 nM.

`CNC[C@@H](O)COc1ccc(Cl)c(-c2nc(-c3c(C)noc3C)c(C)c(N3CCc4nn(C)cc4C3)n2)c1` [Example 122-3]: the IC50 was below 100 nM. In the case of `CNCC(O)COc1cccc(-c2nc(-c3ccnc(OC)c3)cc(N(CCOC)CCOC)n2)c1` (stereo not drawn) [Example 57-1], the IC50 was below 100 nM. To `CNCC(O)COc1cccc(-c2nc(NC3CCOC3)c(C)c(-c3cn(C)nn3)n2)c1` (stereo not drawn) [Example 335-1a] belongs below 100 nM. To `CNCC(O)COc1cccc(-c2nc(-c3ccc4c(c3)OCCO4)cc(N(CCOC)CCOC)n2)c1` (stereo not drawn) [Example 62-1] belongs below 100 nM; to `CNCC(O)COc1cccc(-c2nc(N[C@@H]3CCOC3)c(C)c(-c3cncc(C(=O)OC)c3)n2)c1` (stereo partly drawn) [Example 340-1a], below 100 nM. To `CNCC(O)COc1cccc(-c2nc(NC3CCN(C(=O)C4CC4)CC3)c(C)c(-c3c(C)noc3C)n2)c1` (stereo not drawn) [Example 245-1a] belongs below 100 nM. For the compound `CNCC(O)COc1cccc(-c2nc(-c3c(C)noc3C)c(C)c(N(C)C3CCN(C(=O)OC)CC3)n2)c1` (stereo not drawn) [Example 89-1a], the IC50 is below 100 nM. For `CNCC(O)COc1cccc(-c2nc(NC3CCOCC3)c(C)c(N3CCN(C(C)C)CC3)n2)c1` (stereo not drawn) [Example 644-1a] the value was below 100 nM. As for `CNCC(O)COc1cccc(-c2nc(-c3c(C)noc3C)cc(N3CCN(C)[C@@H](C)C3)n2)c1` (stereo partly drawn) [Example 93-1a], the IC50 was below 100 nM. To `CNCC(O)COc1cc(Cl)cc(-c2nc(-c3ccncc3C3CC3)cc(N(C)C3CCOCC3)n2)c1` (stereo not drawn) [Example 522-1a] belongs below 100 nM; to `CNC[C@@H](O)COc1ccc(Cl)c(-c2nc(NC[C@@H]3CCOC3)c(C)c(-c3c(C)noc3C)n2)c1` [Example 228-3], below 100 nM. For `CNCC(O)COc1cccc(-c2nc(-c3cnc4n3CCNC4)cc(N(C)C3CCOCC3)n2)c1` (stereo not drawn) [Example 563-1a] the value was below 100 nM; for `CCS(=O)(=O)N1CCN(c2nc(-c3cccc(OCC(O)CNC)c3)nc(N[C@@H]3CCOC3)c2C)CC1` (stereo partly drawn) [Example 464-1a], below 100 nM; for `CNCC(O)COc1cccc(-c2nc(NCC3(N(C)C)CCOCC3)c(C)c(-c3c(C)noc3C)n2)c1` (stereo not drawn) [Example 140-1a], below 100 nM. To `CCOC(=O)N1CCCC(Nc2nc(-c3cccc(OCC(O)CNC)c3)nc(-c3c(C)noc3C)c2C)C1` (stereo not drawn) [Example 190-1a] belongs below 100 nM; to `CNCC(O)COc1cccc(-c2nc(-c3c(C)noc3C)c(C)c(N(C)C3CCOCC3)n2)c1` (stereo not drawn) [Example 34-1a], below 100 nM.

Regarding `CNCC(O)COc1cccc(-c2nc(-c3c(C)noc3C)cc(N3C[C@@H]4C[C@H]3CN4C(C)=O)n2)c1` (stereo partly drawn) [Example 95-1a], the half-maximal inhibitory concentration (IC50) is below 100 nM. On to `CNCC(O)COc1cccc(-c2nc(N[C@@H]3CCOC[C@@H]3F)c(C)c(-c3c(C)noc3C)n2)c1` (stereo partly drawn) [Example 271-1a], for which the concentration for half-maximal inhibition (IC50) was below 100 nM. As for `CCOC(=O)N1CCC(Nc2nc(-c3cccc(OCC(O)CNC)c3)nc(-c3c(C)noc3C)c2C)C1` (stereo not drawn) [Example 196-1a], the IC50 is below 100 nM.

As for `CNCC(O)COc1cccc(-c2nc(N[C@@H]3CCOC3)c(C)c(N3CC4CN(S(C)(=O)=O)CC4C3)n2)c1` (stereo partly drawn) [Example 11-3], the concentration for half-maximal inhibition (IC50) is below 100 nM. For `CNC[C@@H](O)COc1ccc(Cl)c(-c2nc(-c3c(C)noc3C)c(C)c(N3Cc4cnc(C5CC5)nc4C3)n2)c1` [Example 259-3] the value was below 100 nM; for `CNCC(O)COc1cccc(-c2nc(N[C@H]3CC[C@@H](O)CC3)cc(-c3c(C)noc3C)n2)c1` (stereo partly drawn) [Example 33-1a], below 100 nM; for `CNCC(O)COc1cccc(-c2nc(NC3CCN(C4COC4)CC3)c(C)c(-c3c(C)noc3C)n2)c1` (stereo not drawn) [Example 263-1a], below 100 nM.

For the compound `CNCC(O)COc1cccc(-c2nc(N[C@H]3C[C@H](C(=O)OC)C3)c(C)c(-c3c(C)noc3C)n2)c1` (stereo partly drawn) [Example 221-1a], the IC50 was below 100 nM. As to `CNCC(O)COc1cccc(-c2nc(N[C@@H]3CCOC3)c(C)c(N3CCN(CC(=O)N(C)C)CC3)n2)c1` (stereo partly drawn) [Example 391-1a], the concentration for half-maximal inhibition (IC50) was below 100 nM. For `CCOC(=O)N1CCOC[C@H]1CNc1nc(-c2cc(OC[C@@H](O)CNC)ccc2F)nc(-c2c(C)noc2C)c1C` [Example 59-3] the value was below 100 nM; for `CCOC(=O)N1CC(Nc2nc(-c3cccc(OCC(O)CNC)c3)nc(-c3c(C)noc3C)c2C)C1` (stereo not drawn) [Example 238-1a], below 100 nM. Regarding `CNCC(O)COc1cccc(-c2nc(-c3c(C)noc3C)cc(N3CCN(CC(F)(F)F)[C@H](C)C3)n2)c1` (stereo partly drawn) [Example 144-1a], the half-maximal inhibitory concentration (IC50) is below 100 nM. To `CNCC(O)COc1cccc(-c2nc(-c3ccc4c(c3)OCCO4)cc(N(C)C3CCOCC3)n2)c1` (stereo not drawn) [Example 59-1] belongs below 100 nM; to `CNC[C@@H](O)COc1ccc(Cl)c(-c2nc(-c3c(C)noc3C)c(C)c(N3Cc4cc(Cl)cnc4C3)n2)c1` [Example 156-3], below 100 nM. For `CNCC(O)COc1cccc(-c2nc(-c3c(C)noc3C)cc(N3CCN(CC(F)F)[C@H](C)C3)n2)c1` (stereo partly drawn) [Example 174-1a] the value was below 100 nM. For `CNCC(O)COc1ccc(Cl)c(-c2nc(NC[C@@H]3CCCO3)c(C)c(-c3c(C)noc3C)n2)c1` (stereo partly drawn) [Example 7-3] the value was below 100 nM; for `CNCC(O)COc1ccc(Cl)c(-c2nc(NC3CC4(CCN(C(=O)OC)CC4)C3)c(C)c(-c3c(C)noc3C)n2)c1` (stereo not drawn) [Example 37-3], below 100 nM.

Turning to `CNC[C@H](O)COc1ccc(Cl)c(-c2nc(-c3c(C)noc3C)cc(N3CC4(CCN(C5CC5)CC4)C3)n2)c1` [Example 69-3], the 50% inhibitory concentration (IC50) is below 100 nM. To `CNCC(O)COc1cccc(-c2nc(-c3c(C)noc3C)cc(N3CCN(C)CC3)n2)c1` (stereo not drawn) [Example 19-1a] belongs below 100 nM; to `CNCC(O)COc1cccc(-c2nc(-c3cnc4nccn4c3)cc(N(C)C3CCOCC3)n2)c1` (stereo not drawn) [Example 620-1a], below 100 nM. To `CCS(=O)(=O)N1CCC(Nc2nc(-c3cccc(OCC(O)CNC)c3)nc(-c3c(C)noc3C)c2C)C1` (stereo not drawn) [Example 197-1a] belongs below 100 nM. To `CNCC(O)COc1cccc(-c2nc(-c3c(C)noc3C)c(C)c(N3CC[C@@H](S(C)(=O)=O)C3)n2)c1` (stereo partly drawn) [Example 111-1a] belongs below 100 nM; to `CNCC(O)COc1cccc(-c2nc(NCCCN3CCCC3=O)cc(-c3cncnc3)n2)c1` (stereo not drawn) [Example 50-1], below 100 nM. Consider `CCOC(=O)N1CCCC[C@@H]1CNc1nc(-c2cc(OC[C@H](O)CNC)ccc2Cl)nc(-c2c(C)noc2C)c1C` [Example 154-3], for which the half-inhibitory concentration (IC50) is below 100 nM. To `CCOC(=O)N1CCN(c2nc(-c3cccc(OCC(O)CNC)c3)nc(N[C@@H]3CCOC3)c2C)C[C@H]1C` (stereo partly drawn) [Example 470-1a] belongs below 100 nM; to `CNCC(O)COc1ccc(Cl)c(-c2nc(NC[C@H]3COCCN3C3COC3)c(C)c(-c3c(C)noc3C)n2)c1` (stereo partly drawn) [Example 2-3], below 100 nM. In the case of `CNCC(O)COc1cc(Cl)cc(-c2nc(-c3cn[nH]c3)c(C)c(N(C)C3CCOCC3)n2)c1` (stereo not drawn) [Example 617-1a], the IC50 was below 100 nM.

Consider `CNCC(O)COc1cccc(-c2nc(N[C@@H]3CCOC3)c(C)c(N3CCCC4(CN(CC(F)F)C4)C3)n2)c1` (stereo partly drawn) [Example 469-1a], for which the 50% inhibitory concentration (IC50) was below 100 nM. In the case of `CNCC(O)COc1cccc(-c2nc(NC3CCOCC3)c(C)c(-c3c(CO)noc3C)n2)c1` (stereo not drawn) [Example 256-3], the half-inhibitory concentration (IC50) is below 100 nM. With `CNC[C@H](O)COc1ccc(F)c(-c2nc(-c3c(C)noc3C)c(C)c(N3CCC4(CC3)CN(C(=O)OC)C4)n2)c1` [Example 84-3], the half-maximal inhibitory concentration (IC50) is below 100 nM. In the case of `CNC[C@@H](O)COc1cccc(-c2nc(-c3c(C)noc3C)c(C)c(-c3cn(S(C)(=O)=O)c4ncncc34)n2)c1` [Example 156-1a], the IC50 is below 100 nM. For `CNC[C@@H](O)COc1ccc(Cl)c(-c2nc(-c3c(C)noc3C)c(F)c(N3CC4(CCOCC4)C3)n2)c1` [Example 261-3] the value was below 100 nM.

`CNC[C@@H](O)COc1ccc(Cl)c(-c2nc(-c3c(C)noc3C)c(C)c(N3CC4(CCOCC4)C3)n2)c1` [Example 118-3]: the IC50 is below 100 nM. To `CCOC(=O)N1CC[C@H](Nc2nc(-c3cc(OC[C@H](O)CNC)ccc3Cl)nc(-c3c(C)noc3C)c2C)C1` [Example 150-3] belongs below 100 nM; to `CNCC(O)COc1cccc(-c2nc(NCCOC)cc(-c3c(C)noc3C)n2)c1` (stereo not drawn) [Example 20-1], below 100 nM.
